Among the data in patent publication US11976072B2, “Diacylglycerol kinase modulating compounds” (priority 2021, dated 2024) are EC50 and IC50 values, retold here.

In experiment [1] the test system is Jurkat NFκB-luciferase cells. In words: Jurkat NFκB-Luciferase Assay. Type of experiment: cell-based. Conditions: Homo sapiens; Jurkat NFκB-luciferase cells activated with anti-CD3 antibody (OKT3), 2.5 hrs at 37° C.; geometric mean; read-out: DGK NFKb Luciferase EC50. Summed up:
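Luminescence from One-Glo Ex, read 7 min post-addition, reports NFκB activation in Jurkat luciferase reporter cells. Cells, diluted to 1 million cells/ml in 10% FBS RPMI, were dispensed onto plates holding compound and washed, pre-bound antibody.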

Experiment [2] concerns the target human DGKα (Homo sapiens, UniProt P23743). The experiment is described as follows: DGKα Biochemical Activity Assay (ADP-Glo).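 Note: luminescent detection of ADP produced as DGKα phosphorylates DAG to phosphatidic acid, IC50 from four-parameter nonlinear curve fit.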 Conditions: recombinant DGKα 1 nM, 100 μM ATP, 18:1 DAG/POPS/octylglucoside micelles, 1 hour at 25° C.; geometric mean; read-out: HTBS DGKa 1X ATP KM IC50.

Sequence of human DGKα (P23743 whole entry): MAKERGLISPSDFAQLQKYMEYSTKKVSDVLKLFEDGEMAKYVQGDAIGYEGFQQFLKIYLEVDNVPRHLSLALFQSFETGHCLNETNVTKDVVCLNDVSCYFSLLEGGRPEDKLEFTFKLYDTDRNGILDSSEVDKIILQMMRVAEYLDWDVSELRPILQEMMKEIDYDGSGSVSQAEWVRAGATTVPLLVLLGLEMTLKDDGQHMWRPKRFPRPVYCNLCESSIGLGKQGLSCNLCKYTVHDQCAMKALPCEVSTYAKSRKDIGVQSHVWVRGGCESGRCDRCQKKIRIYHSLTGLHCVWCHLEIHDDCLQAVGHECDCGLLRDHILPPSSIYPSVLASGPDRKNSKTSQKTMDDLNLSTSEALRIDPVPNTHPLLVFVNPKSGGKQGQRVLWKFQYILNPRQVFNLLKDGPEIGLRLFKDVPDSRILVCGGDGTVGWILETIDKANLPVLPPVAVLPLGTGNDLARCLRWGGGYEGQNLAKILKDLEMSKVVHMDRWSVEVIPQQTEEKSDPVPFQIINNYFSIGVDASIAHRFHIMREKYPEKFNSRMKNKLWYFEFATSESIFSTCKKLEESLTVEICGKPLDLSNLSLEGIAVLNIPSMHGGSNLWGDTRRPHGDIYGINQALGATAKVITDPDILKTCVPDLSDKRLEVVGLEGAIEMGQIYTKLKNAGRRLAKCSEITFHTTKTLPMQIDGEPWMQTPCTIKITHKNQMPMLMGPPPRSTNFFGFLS

Consider `CC(C)(C#Cc1cncc2c1CCCN2c1nc2nncn2c2ccc(F)c(F)c12)C(F)(F)F` [Example 100, 6,7-difluoro-5-(5-(4,4,4-trifluoro-3,3-dimethylbut-1-yn-1-yl)-3,4-dihydro-1,7-naphthyridin-1(2H)-yl)-[1,2,4]triazolo[4,3-a]quinazoline], for which the 50% effective concentration (EC50) in experiment [1] is 0.122 nM. Also, the IC50 in experiment [2] came out at 6.22 nM.
As for `CC(C)(C)C#Cc1cc(N(CC(F)F)c2nc3nncn3c3ccc(F)cc23)ccn1` [Example 101, N-(2,2-difluoroethyl)-N-(2-(3,3-dimethylbut-1-yn-1-yl)pyridin-4-yl)-7-fluoro-[1,2,4]triazolo[4,3-a]quinazolin-5-amine], the EC50 in experiment [1] worked out at 4.69 nM. Also, the IC50 in experiment [2] amounted to 5.56 nM.
For the compound `CC1(C#Cc2cc(N(CC(F)F)c3nc4nncn4c4ccc(F)cc34)ccn2)CC1` [Example 102, N-(2,2-difluoroethyl)-7-fluoro-N-(2-((1-methylcyclopropyl)ethynyl)pyridin-4-yl)-[1,2,4]triazolo[4,3-a]quinazolin-5-amine], the half-maximal effective concentration (EC50) in experiment [1] amounted to 2.81 nM. In experiment [2], the IC50 worked out at 3.8 nM.
Take `Fc1ccc2c(c1)c(N(CC(F)F)c1ccnc(C#CC3(C(F)(F)F)CC3)c1)nc1nncn12` [Example 103, N-(2,2-difluoroethyl)-7-fluoro-N-(2-((1-(trifluoromethyl)cyclopropyl)ethynyl)pyridin-4-yl)-[1,2,4]triazolo[4,3-a]quinazolin-5-amine]: the EC50 in experiment [1] was determined as 2.27 nM. In experiment [2], the IC50 is 5.13 nM.
`Cc1nnc2nc(N(CC(F)F)c3cc(F)cc(C#CC(C)(C)O)c3)c3c(F)cc(Cl)cc3n12` [Example 104, 4-(3-((8-chloro-6-fluoro-1-methyl-[1,2,4]triazolo[4,3-a]quinazolin-5-yl)(2,2-difluoroethyl)amino)-5-fluorophenyl)-2-methylbut-3-yn-2-ol]: in experiment [1], the EC50 came to 8.95 nM. The concentration for half-maximal inhibition (IC50) in experiment [2] was 8.06 nM.
Regarding `Cc1cc(F)cc2c(N(CC(F)F)c3cc(F)cc(C#CC(C)(C)O)c3)nc3nncn3c12` [Example 105], the half-maximal effective concentration (EC50) in experiment [1] amounted to 27.1 nM. Besides, the IC50 in experiment [2] was determined as 30.6 nM.
Take `Cc1cc(F)cc2c(N(CC(F)F)c3cc(F)cc(C#CC4(C(F)(F)F)CC4)c3)nc3nncn3c12` [Example 106]: the EC50 in experiment [1] came out at 2.53 nM. For the same compound, the concentration for half-maximal inhibition (IC50) in experiment [2] worked out at 118 nM.
In the case of `Cc1cccc2c(N3CCOCc4c(C#CC5(C(C)(F)F)CC5)cccc43)nc3nncn3c12` [Example 107], the EC50 in experiment [1] amounted to 3.21 nM. For the same compound, in experiment [2], the IC50 was 39.9 nM.
Consider `Cc1nnc2nc(N3CCOCc4c(C#CC5CC5)cccc43)c3cc(C#N)ccc3n12` [Example 108], for which, in experiment [1], the concentration giving a half-maximal response (EC50) was found to be 2.84 nM. In addition, the half-maximal inhibitory concentration (IC50) in experiment [2] came out at 4.69 nM.
Take `Cc1nnc2nc(N3CCOCc4c(C#CC5(C)CC5)cccc43)c3cc(C#N)ccc3n12` [Example 109]: the concentration giving a half-maximal response (EC50) in experiment [1] is 1.67 nM. The IC50 in experiment [2] turned out to be 7.3 nM.
`CC(C)(O)C#Cc1cccc2c1CCCCN2c1nc2nncn2c2c(F)ccc(F)c12` [Example 110]: in experiment [1], the EC50 was 9.8 nM. The IC50 in experiment [2] came out at 2.76 nM.
For the compound `CC(C)(O)C#Cc1cccc2c1COCCN2c1nc2nncn2c2c(F)ccc(F)c12` [Example 111], in experiment [1], the half-maximal effective concentration (EC50) was 45.8 nM. Also, the IC50 in experiment [2] came out at 6.5 nM.
`Fc1ccc(F)c2c1c(N1CCOCc3c(C#CC4(C(F)(F)F)CC4)cccc31)nc1nncn12` [Example 112]: the EC50 in experiment [1] came to 0.716 nM. Besides, the half-maximal inhibitory concentration (IC50) in experiment [2] turned out to be 3.48 nM.
As for `CC1(C#Cc2cccc3c2COCCN3c2nc3nncn3c3c(F)ccc(F)c23)CC1` [Example 113], the 50% effective concentration (EC50) in experiment [1] came out at 0.9 nM. In addition, in experiment [2], the IC50 came out at 1.44 nM.
With `CC(C)(O)C#Cc1cc(F)cc2c1CCCN2c1nc2nncn2c2c(F)cc(F)cc12` [Example 114], the concentration giving a half-maximal response (EC50) in experiment [1] was determined as 12.5 nM. The half-maximal inhibitory concentration (IC50) in experiment [2] was 6.76 nM.
The like results for `Cc1nnc2nc(N3CCCOc4c(C#CC5(C(C)(F)F)CC5)cccc43)c3c(F)c(F)ccc3n12` [Example 115] were, in that order, 2.37 nM and 32.8 nM.
The like results for `Cc1nnc2nc(N3CCCOc4c(C#CC5CC5)cccc43)c3c(F)c(F)ccc3n12` [Example 116] were, in that order, 1.07 nM and 5.19 nM.
Regarding `CC1(C#Cc2cccc3c2CCCN3c2nc3nncn3c3c(F)ccc(F)c23)CC1` [Example 117], the 50% effective concentration (EC50) in experiment [1] is 1.32 nM. The IC50 in experiment [2] was 14.8 nM.
For `Fc1cc(F)c2c(c1)c(N1CCCc3c(C#CC4(C(F)(F)F)CC4)cccc31)nc1nncn12` [Example 118], in experiment [1], the EC50 came to 5.81 nM. Besides, the IC50 in experiment [2] was determined as 4.89 nM.
On to `Fc1cc(F)c2c(c1)c(N1CCCc3c(C#CC4(C(F)F)CC4)cccc31)nc1nncn12` [Example 119], for which the half-maximal effective concentration (EC50) in experiment [1] was found to be 2.86 nM. In addition, the half-inhibitory concentration (IC50) in experiment [2] was found to be 2.13 nM.
Turning to `CC(C)(O)C#Cc1cccc2c1CCCN2c1nc2nncn2c2c(F)cc(F)cc12` [Example 120], in experiment [1], the 50% effective concentration (EC50) stood at 12.3 nM. In experiment [2], the IC50 came out at 4.99 nM.
Turning to `Fc1cccc2c1c(N1CCCOc3c(C#CC4(C(F)(F)F)CC4)cccc31)nc1nncn12` [Example 121], the EC50 in experiment [1] amounted to 4.95 nM. Also, in experiment [2], the IC50 is 22.8 nM.
As to `Cc1nnc2nc(N3CCCOc4c(C#CC5(C)CC5)cccc43)c3c(F)c(F)ccc3n12` [Example 122], in experiment [1], the half-maximal effective concentration (EC50) stood at 2.63 nM. The IC50 in experiment [2] came to 5.27 nM.
Consider `CC(C)(C#Cc1cccc2c1OCCCN2c1nc2nncn2c2cccc(F)c12)C(F)(F)F` [Example 123], for which the half-maximal effective concentration (EC50) in experiment [1] is 0.533 nM. Moreover, the IC50 in experiment [2] was 31.5 nM.
Consider `CC(C)(C#Cc1cccc2c1COCCN2c1nc2nnc(N)n2c2cccc(F)c12)C(F)(F)F` [Example 124, 6-fluoro-5-(6-(4,4,4-trifluoro-3,3-dimethylbut-1-yn-1-yl)-2,3-dihydrobenzo[e][1,4]oxazepin-1(5H)-yl)-[1,2,4]triazolo[4,3-a]quinazolin-1-amine], for which the EC50 in experiment [1] amounted to 0.781 nM. Also, the half-maximal inhibitory concentration (IC50) in experiment [2] stood at 16.8 nM.
Consider `Cc1nnc2nc(N3CCCc4c(C#CC(C)(C)C#N)cccc43)c3c(Cl)cccc3n12` [Example 125, 4-(1-(6-chloro-1-methyl-[1,2,4]triazolo[4,3-a]quinazolin-5-yl)-1,2,3,4-tetrahydroquinolin-5-yl)-2,2-dimethylbut-3-ynenitrile], for which the EC50 in experiment [1] came out at 2.9 nM. Moreover, the IC50 in experiment [2] stood at 16.4 nM.
Turning to `Cc1nnc2nc(N3CCCc4c(C#CC5(C(F)F)CC5)cccc43)c3c(Cl)cccc3n12` [Example 126, 6-chloro-5-(5-((1-(difluoromethyl)cyclopropyl)ethynyl)-3,4-dihydroquinolin-1(2H)-yl)-1-methyl-[1,2,4]triazolo[4,3-a]quinazoline], the EC50 in experiment [1] stood at 1.16 nM. Further, the IC50 in experiment [2] stood at 17.2 nM.
For the compound `CC1(C#Cc2cccc3c2COCCN3c2nc3nnc(N)n3c3cccc(F)c23)CC1` [Example 127], the EC50 in experiment [1] was 2.02 nM. Further, the half-inhibitory concentration (IC50) in experiment [2] amounted to 8.42 nM.
Turning to `Cc1nnc2nc(N(CC(F)F)c3cc(F)cc(-c4ccc(C(C)(C)O)cc4)c3)c3c(F)cccc3n12` [Example 128, 2-(3′-((2,2-difluoroethyl)(6-fluoro-1-methyl-[1,2,4]triazolo[4,3-a]quinazolin-5-yl)amino)-5′-fluoro-[1,1′-biphenyl]-4-yl)propan-2-ol], the EC50 in experiment [1] stood at 7.48 nM. Besides, in experiment [2], the IC50 amounted to 20.8 nM.
The like results for `Cc1nnc2nc(N3CCCc4c(C#CC5CCCCO5)cccc43)c3c(F)cccc3n12` (stereo not drawn) [Example 129, 6-fluoro-1-methyl-5-(5-((tetrahydro-2H-pyran-2-yl)ethynyl)-3,4-dihydroquinolin-1(2H)-yl)-[1,2,4]triazolo[4,3-a]quinazoline] were, in that order, 1.22 nM and 7.55 nM.
For `Cc1nnc2nc(N3CCCc4c(C#CC5CCCCO5)cccc43)c3cc(F)ccc3n12` (stereo not drawn) [Example 130, 7-fluoro-1-methyl-5-(5-((tetrahydro-2H-pyran-2-yl)ethynyl)-3,4-dihydroquinolin-1(2H)-yl)-[1,2,4]triazolo[4,3-a]quinazoline], in experiment [1], the 50% effective concentration (EC50) came to 1.98 nM. The IC50 in experiment [2] is 4.19 nM.
Consider `Cc1nnc2nc(N3CCCc4c(C#CC5CC5)cccc43)c3c(F)c(F)ccc3n12` [Example 131, 5-[5-(2-cyclopropylethynyl)-3,4-dihydro-2H-quinolin-1-yl]-6,7-difluoro-1-methyl-[1,2,4]triazolo[4,3-a]quinazoline], for which, in experiment [1], the EC50 was found to be 2.14 nM. For the same compound, the IC50 in experiment [2] amounted to 8.68 nM.
Take `Cc1nnc2nc(N3CCOCc4c3ccnc4C#CC3(C)CC3)c3cc(F)ccc3n12` [Example 132, 1-(7-fluoro-1-methyl-[1,2,4]triazolo[4,3-a]quinazolin-5-yl)-6-((1-methylcyclopropyl)ethynyl)-1,2,3,5-tetrahydropyrido[4,3-e][1,4]oxazepine]: the EC50 in experiment [1] was found to be 6.64 nM. Besides, the concentration for half-maximal inhibition (IC50) in experiment [2] worked out at 3.1 nM.
Consider `Cc1nnc2nc(N3CCOCc4c3ccnc4C#CC3(C(C)(F)F)CC3)c3cc(F)ccc3n12` [Example 133, 6-((1-(1,1-difluoroethyl)cyclopropyl)ethynyl)-1-(7-fluoro-1-methyl-[1,2,4]triazolo[4,3-a]quinazolin-5-yl)-1,2,3,5-tetrahydropyrido[4,3-e][1,4]oxazepine], for which the concentration for a half-maximal effect (EC50) in experiment [1] is 5.69 nM. Further, in experiment [2], the IC50 was determined as 15.1 nM.
The like results for `Cc1nnc2nc(N3CCOCc4c3ccnc4C#CC(C)(C)C(F)(F)F)c3cc(F)ccc3n12` [Example 134, 1-(7-fluoro-1-methyl-[1,2,4]triazolo[4,3-a]quinazolin-5-yl)-6-(4,4,4-trifluoro-3,3-dimethylbut-1-yn-1-yl)-1,2,3,5-tetrahydropyrido[4,3-e][1,4]oxazepane] were, in that order, 8.21 nM and 9.88 nM.
The like results for `Cc1nnc2nc(N3CCOCc4c3ccnc4C#CC3(C(F)F)CC3)c3c(F)cccc3n12` [Example 135, 6-((1-(difluoromethyl)cyclopropyl)ethynyl)-1-(6-fluoro-1-methyl-[1,2,4]triazolo[4,3-a]quinazolin-5-yl)-1,2,3,5-tetrahydropyrido[4,3-e][1,4]oxazepine] were, in that order, 6.06 nM and 5.49 nM.

In general, EC50 refers to the concentration giving half of the maximal effect. What is called IC50 is the midpoint of a concentration-inhibition curve.
